The results in this text go back to patent US20240116910A1, “Heterocycles as WIP1 Inhibitors” (PMV Pharmaceuticals, Inc., priority 2022, published 2024).

Each structure is given as a SMILES string.

Broadly, the IC50 is the concentration that gives 50% inhibition.

Assay [1] concerns the target recombinant His-tag Wip1(2-420) protein (amino acids #2-420) (Homo sapiens (Human), UniProt O15297). Briefly: Wip1(2-420) phosphatase enzyme FDP assay. In kind it is biochemical. The following applies: fluorescein diphosphate (FDP) substrate, RT 2 hours, fluorescence Ex485/Em535; read-out: WIP1 (Truncated 2-420) FDP Assay: IC50.
Assay [2] deals with recombinant His-tag Wip1 full length protein (amino acids #1-605) (Homo sapiens (Human), UniProt O15297). The experiment in a line: Wip1 full length phosphatase enzyme FDP assay. In kind it is biochemical. To be noted: fluorescein diphosphate (FDP) substrate, RT 2 hours, fluorescence Ex485/Em535.
Chain of recombinant His-tag Wip1 full length protein (amino acids #1-605) (O15297 whole entry): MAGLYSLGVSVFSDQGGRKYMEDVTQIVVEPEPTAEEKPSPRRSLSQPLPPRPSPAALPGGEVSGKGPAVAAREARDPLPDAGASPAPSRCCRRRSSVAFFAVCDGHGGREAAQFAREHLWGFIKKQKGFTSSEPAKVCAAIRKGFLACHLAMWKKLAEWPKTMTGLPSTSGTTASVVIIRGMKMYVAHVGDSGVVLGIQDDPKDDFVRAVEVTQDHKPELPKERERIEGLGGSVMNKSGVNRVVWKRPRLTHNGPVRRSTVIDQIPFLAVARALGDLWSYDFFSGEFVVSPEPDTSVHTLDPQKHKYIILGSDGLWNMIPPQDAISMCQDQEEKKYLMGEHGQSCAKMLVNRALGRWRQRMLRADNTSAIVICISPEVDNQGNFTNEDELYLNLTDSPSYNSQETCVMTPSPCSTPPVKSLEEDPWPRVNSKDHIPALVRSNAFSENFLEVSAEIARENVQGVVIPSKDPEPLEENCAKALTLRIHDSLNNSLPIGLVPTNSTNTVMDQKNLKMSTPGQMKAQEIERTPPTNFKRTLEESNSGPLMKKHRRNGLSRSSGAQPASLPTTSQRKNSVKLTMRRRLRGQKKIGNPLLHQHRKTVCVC

Chain of recombinant His-tag Wip1(2-420) protein (amino acids #2-420) (O15297 2-420): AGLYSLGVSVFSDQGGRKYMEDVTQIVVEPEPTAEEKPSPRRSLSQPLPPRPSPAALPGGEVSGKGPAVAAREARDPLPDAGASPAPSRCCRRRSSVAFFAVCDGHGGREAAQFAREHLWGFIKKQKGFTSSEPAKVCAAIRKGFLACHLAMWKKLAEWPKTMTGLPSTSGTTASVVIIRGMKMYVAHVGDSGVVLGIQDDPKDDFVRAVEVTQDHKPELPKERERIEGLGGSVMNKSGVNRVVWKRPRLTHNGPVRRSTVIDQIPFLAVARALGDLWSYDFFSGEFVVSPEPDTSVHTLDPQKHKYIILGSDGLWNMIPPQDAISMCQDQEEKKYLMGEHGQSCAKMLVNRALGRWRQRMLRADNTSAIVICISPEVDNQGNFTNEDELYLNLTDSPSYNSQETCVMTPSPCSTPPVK

With `Cc1ncc(Cl)cc1N[C@@H](C)c1ccc(C(=O)N[C@@H](CC2CCCC2)C(=O)NC23CC(O)(C2)C3)s1` [Compound 20, (2S)-2-({5-[(1S)-1-[(5-chloro-2-methylpyridin-3-yl)amino]ethyl]thiophen-2-yl}formamido)-3-cyclopentyl-N-{3-hydroxybicyclo[1.1.1]pentan-1-yl}propanamide], the IC50 in assay [1] is 8 nM; in assay [2], 10 nM.
On the same counts, the results for `Cc1ncc(Cl)cc1N[C@@H](C)c1ccc(C(=O)N[C@@H](CC2CCCC2)C(=O)NC23CC(C)(C2)C3)s1` [Compound 17, (2S)-2-({5-[(1S)-1-[(5-chloro-2-methylpyridin-3-yl)amino]ethyl]thiophen-2-yl}formamido)-3-cyclopentyl-N-{3-methylbicyclo[1.1.1]pentan-1-yl}propanamide] are 7 nM and 6 nM.
`C[C@@H](Nc1cccc(Cl)c1)c1ccc(C(=O)N[C@@H](CC2CCCC2)C(=O)NC2CC2)s1` [Compound 1, 5-[1-(3-chloroanilino)ethyl]-N-[(1S)-1-(cyclopentylmethyl)-2-(cyclopropylamino)-2-oxo-ethyl]thiophene-2-carboxamide]: the IC50 is 6 nM in assay [1] and 9 nM in assay [2].
On the same counts, the results for `COc1ncc(Cl)cc1N[C@@H](C)c1ccc(C(=O)N[C@@H](CC2CCCC2)C(=O)N[C@@H]2CC2(F)F)s1` [Compound 40, (2S)-2-({5-[(1S)-1-[(5-chloro-2-methoxypyridin-3-yl)amino]ethyl]thiophen-2-yl}formamido)-3-cyclopentyl-N-[(1R)-2,2-difluorocyclopropyl]propanamide] are 149 nM and 181 nM.
For `CCNC(=O)[C@H](CC1CCCC1)NC(=O)c1ccc([C@H](C)Nc2cc(Cl)cnc2C)s1` [Compound 77, (2S)-2-({5-[(1S)-1-[(5-chloro-2-methylpyridin-3-yl)amino]ethyl]thiophen-2-yl}formamido)-3-cyclopentyl-N-ethylpropanamide], the values for the IC50 in assay [1] and in assay [2] were 6 nM and 10 nM, respectively.
On the same counts, the results for `Cc1cc(NC(=O)[C@H](CC2CCCC2)NC(=O)c2ccc([C@H](C)Nc3cc(Cl)cnc3C)s2)ccn1` [Compound 73, (2S)-2-({5-[(1S)-1-[(5-chloro-2-methylpyridin-3-yl)amino]ethyl]thiophen-2-yl}formamido)-3-cyclopentyl-N-(2-methylpyridin-4-yl)propanamide] are 4 nM and 8 nM.
For `CCn1cc(NC(=O)[C@H](CC2CCCC2)NC(=O)c2ccc([C@H](C)Nc3cc(Cl)cnc3C)s2)cn1` [Compound 162, (2S)-2-({5-[(1S)-1-[(5-chloro-2-methylpyridin-3-yl)amino]ethyl]thiophen-2-yl}formamido)-3-cyclopentyl-N-(1-ethyl-1H-pyrazol-4-yl)propanamide], in that order: 6 nM and 8 nM.
For `Cc1ncc(Cl)cc1NC(C)c1ccc(C(=O)N[C@@H](CC2CCCC2)C(=O)NC2CC2)s1` (stereo partly drawn) [Compound 5, 5-[1-[(5-chloro-2-methyl-3-pyridyl)amino]ethyl]-N-[(1S)-1-(cyclopentylmethyl)-2-(cyclopropylamino)-2-oxo-ethyl]thiophene-2-carboxamide], in that order: 13 nM and 24 nM.
`Cc1ncc(Cl)cc1N[C@@H](C)c1ccc(C(=O)N[C@@H](CC2CCCC2)C(=O)NC2(C#N)CC2)s1` [Compound 34, (2S)-2-({5-[(1S)-1-[(5-chloro-2-methylpyridin-3-yl)amino]ethyl]thiophen-2-yl}formamido)-N-(1-cyanocyclopropyl)-3-cyclopentylpropanamide]: the values for the IC50 in assay [1] and in assay [2] were 17 nM and 34 nM, respectively.
On the same counts, the results for `CN(Cc1ncc(C(=O)N[C@@H](CC2CCCCC2)C(=O)N[C@H]2CC[C@H](N(C)C)CC2)s1)c1cncc(Cl)c1` [Compound 303, 2-[[(5-chloro-3-pyridyl)-methyl-amino]methyl]-N-[(1S)-1-(cyclohexylmethyl)-2-[[4-(dimethylamino)cyclohexyl]amino]-2-oxo-ethyl]thiazole-5-carboxamide] are 67 nM and 67 nM.
In the case of `Cc1ncc(Cl)cc1N[C@@H](C)c1ccc(C(=O)N[C@@H](CC2CCCC2)C(=O)NC2CCN(C)CC2)s1` [Compound 32, (2S)-2-({5-[(1S)-1-[(5-chloro-2-methylpyridin-3-yl)amino]ethyl]thiophen-2-yl}formamido)-3-cyclopentyl-N-(1-methylpiperidin-4-yl)propanamide], the IC50 in assay [1] came to 48 nM; in assay [2] it was 73 nM.
Turning to `Cc1ncc(Cl)cc1N[C@@H](C)c1ccc(C(=O)N[C@@H](CC2CCCC2)C(=O)Nc2cccc(S(C)(=O)=O)c2)s1` [Compound 41, (2S)-2-({5-[(1S)-1-[(5-chloro-2-methylpyridin-3-yl)amino]ethyl]thiophen-2-yl}formamido)-3-cyclopentyl-N-(3-methanesulfonylphenyl)propanamide], the IC50 in assay [1] amounted to 5 nM; in assay [2] it was 7 nM.
On the same counts, the results for `CC[C@H](Nc1cc(Cl)cnc1C)c1ccc(C(=O)N[C@@H](CC2CCCC2)C(=O)NC23CC(C#N)(C2)C3)s1` [Compound 80, (2S)-2-({5-[(1S)-1-[(5-chloro-2-methylpyridin-3-yl)amino]propyl]thiophen-2-yl}formamido)-N-{3-cyanobicyclo[1.1.1]pentan-1-yl}-3-cyclopentylpropanamide] are 10 nM and 18 nM.
On the same counts, the results for `Cc1ncc(Cl)cc1N[C@@H](C)c1ccc(C(=O)N[C@@H](CC2CCCC2)C(=O)Nc2ccc3c(c2)CCCN3C)s1` [Compound 168, (2S)-2-({5-[(1S)-1-[(5-chloro-2-methylpyridin-3-yl)amino]ethyl]thiophen-2-yl}formamido)-3-cyclopentyl-N-(1-methyl-1,2,3,4-tetrahydroquinolin-6-yl)propanamide] are 11 nM and 15 nM.
In the case of `Cc1ncc(Cl)cc1N[C@@H](C)c1ccc(C(=O)N[C@@H](CC2CCCC2)C(=O)NC2CC(F)(F)C2)s1` [Compound 25, (2S)-2-({5-[(1S)-1-[(5-chloro-2-methylpyridin-3-yl)amino]ethyl]thiophen-2-yl}formamido)-3-cyclopentyl-N-(3,3-difluorocyclobutyl)propanamide], the IC50 in assay [1] worked out at 5 nM; in assay [2], 8 nM.
For `COc1ncc(Cl)cc1N[C@H](C)c1ccc(C(=O)N[C@@H](CC2CCCC2)C(=O)N[C@@H]2CC2(F)F)s1` [Compound 36, (2S)-2-({5-[(1R)-1-[(5-chloro-2-methoxypyridin-3-yl)amino]ethyl]thiophen-2-yl}formamido)-3-cyclopentyl-N-[(1R)-2,2-difluorocyclopropyl]propanamide], in that order: 8 nM and 10 nM.
Regarding `Cc1ncc(Cl)cc1N[C@@H](C)c1ccc(C(=O)N[C@@H](CC2CCCC2)C(=O)Nc2ccc(F)cc2)s1` [Compound 18, (2S)-2-({5-[(1S)-1-[(5-chloro-2-methylpyridin-3-yl)amino]ethyl]thiophen-2-yl}formamido)-3-cyclopentyl-N-(4-fluorophenyl)propanamide], the IC50 in assay [1] was determined as 7 nM; in assay [2] it was 8 nM.
On the same counts, the results for `CNC(=O)[C@H](CC1CCCC1)NC(=O)c1ccc([C@H](C)Nc2cc(Cl)cnc2C)s1` [Compound 74, (2S)-2-({5-[(1S)-1-[(5-chloro-2-methylpyridin-3-yl)amino]ethyl]thiophen-2-yl}formamido)-3-cyclopentyl-N-methylpropanamide] are 21 nM and 27 nM.
In the case of `CC[C@@H](Nc1cc(Cl)cnc1C)c1ccc(C(=O)N[C@@H](CC2CCCC2)C(=O)NC2CC2)s1` [Compound 39, (2S)-2-({5-[(1R)-1-[(5-chloro-2-methylpyridin-3-yl)amino]propyl]thiophen-2-yl}formamido)-3-cyclopentyl-N-cyclopropylpropanamide], the IC50 in assay [1] turned out to be 122 nM; in assay [2], 332 nM.
On the same counts, the results for `Cc1ncc(Cl)cc1NC(C)(C)c1ccc(C(=O)N[C@@H](CC2CCCC2)C(=O)NC2CC2)s1` [Compound 55, (2S)-2-[(5-{2-[(5-chloro-2-methylpyridin-3-yl)amino]propan-2-yl}thiophen-2-yl)formamido]-3-cyclopentyl-N-cyclopropylpropanamide] are 29 nM and 36 nM.
On the same counts, the results for `CN(Cc1ncc(C(=O)N[C@@H](CC2CCCCC2)C(=O)Nc2ccncc2)s1)c1cncc(Cl)c1` [Compound 287, 2-[[(5-chloro-3-pyridyl)-methyl-amino]methyl]-N-[(1S)-1-(cyclohexylmethyl)-2-oxo-2-(4-pyridylamino)ethyl]thiazole-5-carboxamide] are 6 nM and 14 nM.
For `Cc1ncc(Cl)cc1N[C@@H](C)c1ccc(C(=O)N[C@H](C(=O)Nc2cnn(C)c2)C2CCCCC2)s1` [Compound 177, (2S)-2-({5-[(1S)-1-[(5-chloro-2-methylpyridin-3-yl)amino]ethyl]thiophen-2-yl}formamido)-2-cyclohexyl-N-(1-methyl-1H-pyrazol-4-yl)acetamide], the 50% inhibitory concentration (IC50) in assay [1] was determined as 18 nM; in assay [2], 23 nM.
As to `Cc1ncc(Cl)cc1N[C@@H](C)c1ccc(C(=O)N[C@@H](CC2CCCC2)C(=O)NC2CCS(=O)(=O)CC2)s1` [Compound 58, (2S)-2-({5-[(1S)-1-[(5-chloro-2-methylpyridin-3-yl)amino]ethyl]thiophen-2-yl}formamido)-3-cyclopentyl-N-(1,1-dioxo-1λ^6-thian-4-yl)propanamide], the IC50 in assay [1] stood at 9 nM; in assay [2], 12 nM.
For `CC(Nc1cccc(Cl)c1)c1ccc(C(=O)N[C@@H](CC2CCCC2)C(=O)NC2CC2)s1` (stereo partly drawn) [Compound 4, 5-[1-(3-chloroanilino)ethyl]-N-[(1S)-1-(cyclopentylmethyl)-2-(cyclopropylamino)-2-oxo-ethyl]thiophene-2-carboxamide], in that order: 79 nM and 15 nM.
